From US20140051679A1, “KINASE INHIBITORS AND METHOD OF TREATING CANCER WITH SAME” (UNIVERISTY HEALTH NETWORKS, priority 2011, published 2014)

Columns and labels:
human TTK = target: T1, human TTK (Homo sapiens, UniProt P33981); assay: TTK inhibition assay (indirect ELISA); type: biochemical; settings: GST-TTK 0.68 nM, 16 μM ATP; read-out: IC50 Ranges TTK
T1 construct: amino terminal GST fusion of full length human TTK; purchased Invitrogen
T1 sequence (P33981 1-857): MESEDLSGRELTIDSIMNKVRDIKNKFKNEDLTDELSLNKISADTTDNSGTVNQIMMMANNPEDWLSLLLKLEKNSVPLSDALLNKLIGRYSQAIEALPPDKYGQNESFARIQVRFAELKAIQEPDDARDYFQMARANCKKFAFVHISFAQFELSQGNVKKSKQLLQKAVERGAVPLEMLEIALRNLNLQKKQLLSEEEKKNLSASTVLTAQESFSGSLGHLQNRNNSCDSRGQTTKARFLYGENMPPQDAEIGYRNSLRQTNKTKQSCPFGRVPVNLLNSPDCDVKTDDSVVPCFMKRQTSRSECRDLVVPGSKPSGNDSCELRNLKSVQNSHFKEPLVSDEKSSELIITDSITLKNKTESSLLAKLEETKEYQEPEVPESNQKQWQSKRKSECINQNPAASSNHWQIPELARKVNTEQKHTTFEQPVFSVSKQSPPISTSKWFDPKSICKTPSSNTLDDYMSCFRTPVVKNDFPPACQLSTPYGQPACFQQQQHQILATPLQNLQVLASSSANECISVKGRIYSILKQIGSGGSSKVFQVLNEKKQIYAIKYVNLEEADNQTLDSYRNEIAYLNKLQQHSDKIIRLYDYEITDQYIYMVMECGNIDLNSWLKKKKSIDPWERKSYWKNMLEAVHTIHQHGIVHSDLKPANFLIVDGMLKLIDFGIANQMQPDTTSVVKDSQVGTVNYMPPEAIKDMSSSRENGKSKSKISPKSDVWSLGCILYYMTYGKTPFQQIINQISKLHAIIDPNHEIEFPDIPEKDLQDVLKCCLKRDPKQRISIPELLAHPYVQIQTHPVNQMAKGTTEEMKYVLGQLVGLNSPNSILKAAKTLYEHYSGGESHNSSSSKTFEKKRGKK

human PLK4 = target: T2, human PLK4 (Homo sapiens, UniProt O00444); assay: PLK4 inhibition assay (indirect ELISA); type: biochemical; settings: GST-PLK4 4 nM, 15 μM ATP; read-out: IC50 Ranges PLK4
T2 construct: amino terminal GST fusion of residues 1-391 of human PLK4; made in house; host or cells: E. coli
T2 sequence (O00444 1-391): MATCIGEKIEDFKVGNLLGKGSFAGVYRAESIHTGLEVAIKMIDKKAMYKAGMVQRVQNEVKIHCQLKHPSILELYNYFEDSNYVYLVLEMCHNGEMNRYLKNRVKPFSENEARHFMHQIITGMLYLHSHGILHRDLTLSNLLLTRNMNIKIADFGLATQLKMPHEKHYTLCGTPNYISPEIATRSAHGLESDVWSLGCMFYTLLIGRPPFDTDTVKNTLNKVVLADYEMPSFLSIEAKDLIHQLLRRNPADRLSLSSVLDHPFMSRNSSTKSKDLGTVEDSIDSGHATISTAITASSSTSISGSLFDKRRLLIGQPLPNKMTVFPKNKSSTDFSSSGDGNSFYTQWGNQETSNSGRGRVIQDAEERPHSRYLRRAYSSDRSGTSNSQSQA
Procedure, shortened: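 Compounds were tested either at a single 10 μM dose or across 10-point titrations (typically 0.5 to 0.001 μM), preincubated 15 min with 4 nM GST-PLK4 (human 1-391, dephosphorylated) before 15 μM ATP was added. MBP substrate phosphorylation over 30 min, pH 7.5 HEPES/MgCl2 buffer, read by HRP/TMB ELISA (450 nm). % inhibition vs. high-activity control; IC50 by logistic fit.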

[1] = test system: MDA-MB-231 breast cancer cells; assay: Cell growth inhibition, Sulforhodamine B assay, MDA-MB-231; type: cell-based; settings: Homo sapiens, 120 h, 5 days culture, SRB assay, read-out: Cell Line GI50 Range MDA-MB-231
[2] = test system: MDA-MB-468 breast cancer cells; assay: Cell growth inhibition, Sulforhodamine B assay, MDA-MB-468; type: cell-based; settings: Homo sapiens, 120 h, 5 days culture, SRB assay, read-out: Cell Line GI50 Range MDA-MB-468
[3] = test system: HCT116 colon cancer cells; assay: Cell growth inhibition, Sulforhodamine B assay, HCT116; type: cell-based; settings: Homo sapiens, HCT-116, 120 h, 5 days culture, SRB assay, read-out: Cell Line GI50 Range HCT116
HT29 colon cancer cells = assay: Cell growth inhibition, Sulforhodamine B assay, HT29; type: cell-based; settings: Homo sapiens, HT-29, 120 h, 5 days culture, SRB assay, read-out: Cell Line GI50 Range HT29
[4] = test system: OVCAR-3 ovarian cancer cells; assay: Cell growth inhibition, Sulforhodamine B assay, OVCAR-3; type: cell-based; settings: Homo sapiens, 120 h, 5 days culture, SRB assay, read-out: Cell Line GI50 Range OVCAR-3
Aurora B = target: T3, Aurora B (Homo sapiens, UniProt Q96GD4); assay: Aurora B inhibition assay (Z-Lyte); type: biochemical; settings: 28 nM Aurora B, 128 μM ATP; read-out: IC50 Ranges Aurora B
T3 construct: purchased Invitrogen PV3970
Description: Aurora B inhibition was determined using the Z-Lyte assay kit from Invitrogen. The assay was performed using the recommended manufacturer's instructions with 128 μM ATP and 28 nM Aurora B (Invitrogen cat #PV3970). The % inhibition values were determined according to the manufacturer's directions and IC50 values were obtained using a non-linear 4 point logistic curve fit (XLfit4, IDBS)

T3 sequence (Q96GD4 whole entry): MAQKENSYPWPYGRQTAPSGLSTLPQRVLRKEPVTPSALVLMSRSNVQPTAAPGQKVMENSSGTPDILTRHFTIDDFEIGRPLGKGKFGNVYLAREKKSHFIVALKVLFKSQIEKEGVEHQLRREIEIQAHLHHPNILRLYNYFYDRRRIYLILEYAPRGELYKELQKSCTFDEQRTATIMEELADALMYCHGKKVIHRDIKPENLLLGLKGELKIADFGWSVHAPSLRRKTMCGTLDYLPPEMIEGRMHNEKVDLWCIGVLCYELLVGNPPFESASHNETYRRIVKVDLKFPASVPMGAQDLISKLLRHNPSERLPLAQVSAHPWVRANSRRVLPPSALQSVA

Row | IC50 (human TTK) [µM] | IC50 (human PLK4) [µM] | GI50 [1] [µM] | GI50 [2] [µM] | GI50 [3] [µM] | GI50 (HT29 colon cancer cells) [µM] | GI50 [4] [µM] | IC50 (Aurora B) [µM] | SMILES
1 | ≤ 5 | ≤ 5 | 5 to 20 | ≤ 5 | ≤ 5 | ≤ 5 | 5 to 20 | – | CN1CCC(Oc2ccc(-c3n[nH]c4ccc(C(=O)NCC(c5ccsc5)N5CCOCC5)cc34)cc2)CC1 (stereo not drawn) [Example A75, 3-(4-((1-methylpiperidin-4-yl)oxy)phenyl)-N-(2-morpholino-2-(thiophen-3-yl)ethyl)-1H-indazole-5-carboxamide]
2 | ≤ 5 | ≤ 5 | ≤ 5 | ≤ 5 | ≤ 5 | ≤ 5 | 5 to 20 | – | CN1CCN(Cc2ccc(-c3n[nH]c4ccc(NC(=O)C(c5ccsc5)N5CCCC5)cc34)cc2)CC1 (stereo not drawn) [Example A67, N-(3-(4-((4-methylpiperazin-1-yl)methyl)phenyl)-1H-indazol-5-yl)-2-(pyrrolidin-1-yl)-2-(thiophen-3-yl)acetamide]
3 | ≤ 5 | ≤ 5 | ≤ 5 | ≤ 5 | ≤ 5 | – | – | ≤ 5 | O=C(Nc1ccc2[nH]nc(-c3ccc4c(c3)OCCCO4)c2c1)C(c1ccsc1)N1CCCC1 (stereo not drawn) [Example A20, N-(3-(3,4-dihydro-2H-benzo[b][1,4]dioxepin-7-yl)-1H-indazol-5-yl)-2-(pyrrolidin-1-yl)-2-(thiophen-3-yl)acetamide]
4 | ≤ 5 | ≤ 5 | ≤ 5 | ≤ 5 | ≤ 5 | – | – | ≤ 5 | O=C(Nc1ccc2[nH]nc(-c3ccc(CCN4CCOCC4)cc3)c2c1)C(c1ccsc1)N1CCCC1 (stereo not drawn) [Example A6, N-(3-(4-(2-morpholinoethyl)phenyl)-1H-indazol-5-yl)-2-(pyrrolidin-1-yl)-2-(thiophen-3-yl)acetamide]
5 | ≤ 5 | ≤ 5 | – | ≤ 5 | ≤ 5 | ≤ 5 | ≤ 5 | – | O=C(Nc1ccc2[nH]nc(-c3ccc(NC4CCCC4)cc3)c2c1)C(c1ccsc1)N1CCCC1 (stereo not drawn) [Example A70, N-(3-(4-(cyclopentylamino)phenyl)-1H-indazol-5-yl)-2-(pyrrolidin-1-yl)-2-(thiophen-3-yl)acetamide]
6 | ≤ 5 | ≤ 5 | – | ≤ 5 | ≤ 5 | ≤ 5 | 5 to 20 | ≤ 5 | CN1CCC(Oc2ccc(-c3n[nH]c4ccc(NC(=O)Nc5c(Cl)cccc5Cl)cc34)cc2)CC1 [Example A76, 1-(2,6-dichlorophenyl)-3-(3-(4-((1-methylpiperidin-4-yl)oxy)phenyl)-1H-indazol-5-yl)urea]
7 | ≤ 5 | ≤ 5 | ≤ 5 | ≤ 5 | ≤ 5 | – | – | ≤ 5 | COc1cc(-c2n[nH]c3ccc(NC(=O)C(c4ccsc4)N4CCCC4)cc23)ccc1N1CCN(C)CC1 (stereo not drawn) [Example A10, N-(3-(3-methoxy-4-(4-methylpiperazin-1-yl)phenyl)-1H-indazol-5-yl)-2-(pyrrolidin-1-yl)-2-(thiophen-3-yl)acetamide]
8 | ≤ 5 | ≤ 5 | ≤ 5 | ≤ 5 | ≤ 5 | – | – | ≤ 5 | COc1cc(-c2n[nH]c3ccc(C(=O)NC(c4ccccc4)C4CC4)cc23)ccc1OC1CCNCC1 (stereo not drawn) [Example A13, N-(cyclopropyl(phenyl)methyl)-3-(3-methoxy-4-(piperidin-4-yloxy)phenyl)-1H-indazole-5-carboxamide]
9 | ≤ 5 | ≤ 5 | ≤ 5 | ≤ 5 | ≤ 5 | – | – | 5 to 50 | O=C(Nc1ccc2[nH]nc(-c3cccc(CN4CCOCC4)c3)c2c1)C(c1ccsc1)N1CCCC1 (stereo not drawn) [Example A1, N-(3-(3-(morpholinomethyl)phenyl)-1H-indazol-5-yl)-2-(pyrrolidin-1-yl)-2-(thiophen-3-yl)acetamide]
10 | ≤ 5 | ≤ 5 | ≤ 5 | ≤ 5 | ≤ 5 | – | – | ≤ 5 | CN1CCN(c2ccc(-c3n[nH]c4ccc(NC(=O)C(c5ccsc5)N5CCCC5)cc34)cc2)CC1 (stereo not drawn) [Example A2, N-(3-(4-(4-methylpiperazin-1-yl)phenyl)-1H-indazol-5-yl)-2-(pyrrolidin-1-yl)-2-(thiophen-3-yl)acetamide]
11 | ≤ 5 | ≤ 5 | ≤ 5 | ≤ 5 | ≤ 5 | – | – | 5 to 50 | O=C(Nc1ccc2[nH]nc(-c3ccc(N4CCOCC4)cc3)c2c1)C1CCCc2ccccc21 (stereo not drawn) [Example A22, N-(3-(4-morpholinophenyl)-1H-indazol-5-yl)-1,2,3,4-tetrahydronaphthalene-1-carboxamide]
12 | ≤ 5 | ≤ 5 | ≤ 5 | ≤ 5 | ≤ 5 | – | – | ≤ 5 | COc1cc(-c2n[nH]c3ccc(NC(=O)C(c4ccsc4)N4CCCC4)cc23)ccc1OC1CCNCC1 (stereo not drawn) [Example A8, N-(3-(3-methoxy-4-(piperidin-4-yloxy)phenyl)-1H-indazol-5-yl)-2-(pyrrolidin-1-yl)-2-(thiophen-3-yl)acetamide]
13 | ≤ 5 | ≤ 5 | ≤ 5 | ≤ 5 | ≤ 5 | – | – | ≤ 5 | COc1cc(-c2n[nH]c3ccc(C(=O)NC(c4ccccc4)C4CC4)cc23)ccc1OC1CCN(C)CC1 (stereo not drawn) [Example A19, N-(cyclopropyl(phenyl)methyl)-3-(3-methoxy-4-((1-methylpiperidin-4-yl)oxy)phenyl)-1H-indazole-5-carboxamide]
14 | ≤ 5 | ≤ 5 | ≤ 5 | ≤ 5 | ≤ 5 | – | – | ≤ 5 | CN1CCOc2cc(-c3n[nH]c4ccc(NC(=O)C(c5ccsc5)N5CCCC5)cc34)ccc21 (stereo not drawn) [Example A17, N-(3-(4-methyl-3,4-dihydro-2H-benzo[b][1,4]oxazin-7-yl)-1H-indazol-5-yl)-2-(pyrrolidin-1-yl)-2-(thiophen-3-yl)acetamide]
15 | ≤ 5 | ≤ 5 | ≤ 5 | ≤ 5 | ≤ 5 | – | – | ≤ 5 | COc1cc(-c2n[nH]c3ccc(NC(=O)C(c4ccsc4)N4CCCC4)cc23)ccc1OC1CCN(C)CC1 (stereo not drawn) [Example A21, N-(3-(3-methoxy-4-((1-methylpiperidin-4-yl)oxy)phenyl)-1H-indazol-5-yl)-2-(pyrrolidin-1-yl)-2-(thiophen-3-yl)acetamide]
